The text below walks through data of ChEMBL document CHEMBL1148562, “Synthesis and biological evaluation of novel pyrrolo[2,1-c][1,4]benzodiazepine prodrugs for use in antibody-directed enzyme prodrug therapy” (Bioorg Med Chem Lett, 2006).

As usually defined, the IC50 is the concentration that gives 50% inhibition. High values mean a need for much substance, low ones inhibition by little substance.

In data set [1] the test system is LS174T. The data set can be described thus: Cytotoxicity against LS174T human colon cell line after 1 hour of exposure. Type of data set: functional, cell-based.
Data set [2] deals with LS174T. The data set can be described thus: Cytotoxicity against LS174T human colon cell line after continuous exposure. Type of data set: functional, cell-based.
A short description of data set [3]: Conversion of prodrug to parent in distilled water at 37 degC for 24 hrs. Type of data set: ADME. To be noted: buffer.
A short description of data set [4]: Conversion of prodrug to parent in distilled water at room temperature for 24 hrs. Type of data set: ADME. To be noted: buffer.

`COc1cc2c(cc1OC)N(C(=O)OCc1ccc(NC(=O)N[C@@H](CCC(=O)O)C(=O)O)cc1)[C@@H](O)[C@@H]1CCCN1C2=O`: the values for the IC50 in the data set on LS174T [1] and in the data set on LS174T [2] were 28 µM and 1.6 µM, respectively. Also, the outcome in data set [3] and in data set [4] was Active.
Turning to `COc1cc2c(cc1OCCCOc1cc3c(cc1OC)C(=O)N1CCC[C@H]1[C@H](O)N3C(=O)OCc1ccc(NC(=O)N[C@@H](CCC(=O)O)C(=O)O)cc1)N(C(=O)OCc1ccc(NC(=O)N[C@@H](CCC(=O)O)C(=O)O)cc1)[C@@H](O)[C@@H]1CCCN1C2=O`, the IC50 with LS174T [1] turned out to be 0.006 µM; with LS174T [2], 0.0008 µM. For the same molecule, the outcome in data set [3] and in data set [4] was Active.
On to `COc1cc2c(cc1OC)C(=O)N1CCC[C@H]1C=N2`, for which the values for the IC50 in the data set with LS174T [1] and in the data set on LS174T [2] were 14 µM and 1.4 µM, respectively.
As to `COc1cc2c(cc1OCCCOc1cc3c(cc1OC)C(=O)N1CCC[C@H]1[C@H](O)N3C(=O)OCc1ccc(OC(=O)N[C@@H](CCC(=O)O)C(=O)O)cc1)N(C(=O)OCc1ccc(OC(=O)N[C@@H](CCC(=O)O)C(=O)O)cc1)[C@@H](O)[C@@H]1CCCN1C2=O`, the figures for the IC50 with LS174T [1] and with LS174T [2] were 0.2 µM and 0.021 µM, respectively. Further, the Activity in data set [3] turned out to be 3%. For the same molecule, the Stability entry in data set [4] is reported as “Stable”.
For `COc1cc2c(cc1OC)N(C(=O)OCc1ccc(OC(=O)N[C@@H](CCC(=O)O)C(=O)O)cc1)[C@@H](O)[C@@H]1CCCN1C2=O`, in that order: more than 100 µM, 20 µM, 7% and “Stable”.
Consider `COc1cc2c(cc1OCCCOc1cc3c(cc1OC)C(=O)N1CCC[C@H]1C=N3)N=C[C@@H]1CCCN1C2=O` [DSB-120], for which the IC50 with LS174T [1] was determined as 0.013 µM; in the data set on LS174T [2], 0.00047 µM.
